In US4667020A, “Aromatic disazo dyes and liquid-crystalline materials containing these dyes” (BASF Aktiengesellschaft, priority 1984, dated 1987):

Experiments:
[1] = degree of order S in liquid crystal mixture; assay type: physicochemical
Description: (§1) The degree of order S measured at room temperature, the solubility L, likewise determined at room temperature, and the Merck liquid crystal mixtures used are summarized in Table 1 for the Examples 1, 2 and 4-12.
The degree of order S was determined in commercial measuring cells with a homogeneous edge orientation, using the known equation [formula] (polyimide). The dichroic ratio CR was determined by measuring the extinctions E.parallel. (measurement with light polarized parallel to the preferred direction of the nematic phase) and E.perp. (measurement with light polarized at right angles to the preferred direction of the nematic phase) and using the relationship [formula] the dye concentration being chosen so that E.parallel. was from 1 to 2. The measurements were carried out on a Beckmann Acta CIII spectrophotometer.

[2] = solubility L in liquid crystal mixture; assay type: physicochemical; conditions: 1 week stirring
Description: as §1
The solubility was determined as follows:
50 mg of the particular dye were stirred in 1 ml of liquid-crystalline mixture for 1 week at room temperature, the saturated solution was separated from the residue by centrifuging, and the solubility was determined by comparison of the extinctions.

[3] = liquid crystal mixture ZLI 1840
[4] = liquid crystal mixture ZLI 1957/5
[5] = liquid crystal mixture ZLI 2452

Compound	Degree of order S (at room temp.) [1, 3]	Degree of order S (at room temp.) [1, 4]	Solubility L (at room temp.) [2, 3] [%]	Solubility L (at room temp.) [2, 4] [%]	Degree of order S (at room temp.) [1, 5]	Solubility L (at room temp.) [2, 5] [%]
CCCCc1nnc(-c2ccc(N=Nc3cc(C)c(N=Nc4ccc(OCc5ccc(C6CCC(CC)CC6)cc5)cc4C)cc3C)cc2)o1 (stereo not drawn) [Example 1]	0.76	0.76	1.6	1.3		
CCCCSc1nnc(-c2ccc(N=Nc3cc(C)c(N=Nc4ccc(N(C)CCCC)cc4)cc3C)cc2)s1 [Example 2]		0.74		1.1		
Cc1cc(N=Nc2ccc(N(C)C)cc2)c(C)cc1N=Nc1ccc(-c2nnc(SCc3ccccc3)s2)cc1 [Example 4]	0.78		< 0.2			
CCCCc1nnc(-c2ccc(N=Nc3cc(C)c(N=Nc4ccc(N(C)CCCC)cc4)cc3C)cc2)o1 [Example 5]	0.73	0.73	1.4	1.3		
CCCCC(CC)c1nnc(-c2ccc(N=Nc3cc(C)c(N=Nc4ccc(N(C)CCCC)cc4)cc3C)cc2)o1 (stereo not drawn) [Example 6]		0.68		> 5		
CCOC(=O)c1sc(-c2ccc(N=Nc3ccc(N=Nc4ccc(N(C)C)cc4)c4ccccc34)cc2)nc1C [Example 7]	0.74		1.4			
CCCCSc1nnc(-c2ccc(N=Nc3ccc(N=Nc4ccc(N(C)C)cc4)c4ccccc34)cc2)s1 [Example 8]	0.76	0.78	1.3	0.5		
CCCCSc1nnc(-c2ccc(N=Nc3ccc(N=Nc4ccc(N(C)CCCC)cc4)c4ccccc34)cc2)s1 [Example 9]	0.79	0.77	0.6	0.3		
CCCCc1nnc(-c2ccc(N=Nc3ccc(N=Nc4ccc(N(C)CCCC)cc4)c4ccccc34)cc2)o1 [Example 10]		0.74		1.2		
CCCCC(CC)c1nnc(-c2ccc(N=Nc3ccc(N=Nc4ccc(N(C)CCCC)cc4)c4ccccc34)cc2)o1 (stereo not drawn) [Example 11]		0.74		> 5		
CCCCC(CC)c1nnc(-c2ccc(N=Nc3ccc(N=Nc4ccc(NCC)c5ccccc45)c4ccccc34)cc2)o1 (stereo not drawn) [Example 12]		0.71		0.8		
CCCCCCCCSc1nnc(-c2ccc(N=Nc3ccc(N=Nc4ccc(N(C)CCCC)cc4)c4ccccc34)cc2)s1 [Example 14]		0.77		0.7		
CCCCC(CC)CSc1nnc(-c2ccc(N=Nc3ccc(N=Nc4ccc(N(C)CCCC)cc4)c4ccccc34)cc2)s1 (stereo not drawn) [Example 15]					0.8	> 5
CCCCCCCC(C)Sc1nnc(-c2ccc(N=Nc3ccc(N=Nc4ccc(N(C)CCCC)cc4)c4ccccc34)cc2)s1 (stereo not drawn) [Example 16]					0.81	> 5
CCCCC1CCC(c2ccc(COc3ccc(N=Nc4ccc(N=Nc5ccc(-c6nnc(SCC(CC)CCCC)s6)cc5)c5ccccc45)c(C)c3)cc2)CC1 (stereo not drawn) [Example 18]					0.82	3.1
CCCCCCCC(C)Sc1nnc(-c2ccc(N=Nc3ccc(N=Nc4ccc(OCc5ccc(C6CCC(CCCC)CC6)cc5)cc4C)c4ccccc34)cc2)s1 (stereo not drawn) [Example 19]		0.77		> 5	0.84	> 5
